23 molecules from US8933039B2 (NPS Pharmaceuticals, Inc., priority 1995, dated 2015) can be followed below.

The subject of this test is CD1 mice. In words: Intestinotrophic activity assessment: small bowel weight in mice. In kind it is in vivo. The following applies: for % Activity (small bowel inducing activity relative to native rat GLP-2(1-33) = 100%): mice, as Example 4; for % Increase in small bowel weight: CD1 mice, 2.5 μg peptide s.c. b.i.d. in PBS, sacrificed 10 or 14 days, relative to vehicle only. As to the method:
Recipients were CD1 mice obtained from Charles River Laboratory (Ontario, Canada). The CD1 mice were aged-matched females at time of injection (n=3-4 per group), 6 weeks of age, unless otherwise specified. The animals were allowed a minimum of 24 hours to acclimatize to the laboratory facility before the initiation of each experiment. Animals were identified by ear punch. The mice were not restricted by diet or activity during the experiments. The light/dark cycle was 12 hours, between 6 pm to 6 am. Controls were age- and sex-matched (n=3-4) animals. Mice were injected subcutaneously, twice a day (b.i.d.), with 2.5 μg peptide in a total volume of 0.5 cc of PBS and were monitored daily in the laboratory facility. Animals were sacrificed 10 or 14 days after injection, and were fasted at least 20 hours before sacrifice.
The mice were anaesthetised with CO2 and exsanguinated by cardiac puncture. Blood was collected in 75 μl of TED (Trasysol; EDTA (5000 KIU/ml: 1.2 mg/ml; Diprotin-A), and the blood was centrifuged at 14 k×g for 5 minutes and the plasma was stored at −70 prior to analysis. The small bowel was removed from the peritoneal cavity, from pylorus to cecum, cleaned weighed and measured. For comparative purpose, sections from each animal were obtained from the identical anatomical position. Fragments each measuring 1.5-2.0 cm in length were obtained 8±2 cm, 18±2 cm, 32±2 cm from pylorus for histomorphometry representing proximal jejunum, distal jejunum and distal ileum. Each small bowel fragment was opened longitudinally on its antimesenteric border in a tissue block and then placed on 10% formalin (vol./vol.) overnight, then transferred to 70% […].
Percentage change in small bowel weight was calculated by dividing the mean change in bowel weight of analog treated mice, relative to mice treated with vehicle only, by the mean bowel weight of mice treated with vehicle only, and multiplying this figure by 100.
Experiments assessing the small bowel inducing activity of various analogs was repeated as described above for Example 4. In these experiments, the small bowel inducing activity of each analog in mice was calculated relative to that of native rat GLP-2(1-33) (expressed as 100% of activity). Resistance of analogs to DPP-IV cleavage was performed as described above in Example 3.

Non-standard residues stand in square brackets, D forms with d. Residues, ends and D or L forms follow the SMILES beside them. Met(O) = CS(=O)CC[C@H](N)C(=O)O; Nle = CCCC[C@H](N)C(=O)O

`CC[C@H](C)[C@H](NC(=O)[C@H](Cc1ccccc1)NC(=O)[C@H](CC(=O)O)NC(=O)[C@H](CCCNC(=N)N)NC(=O)[C@H](C)NC(=O)[C@H](C)NC(=O)[C@H](CC(C)C)NC(=O)[C@H](CC(N)=O)NC(=O)[C@H](CC(=O)O)NC(=O)[C@H](CC(C)C)NC(=O)[C@@H](NC(=O)[C@@H](NC(=O)[C@H](CC(N)=O)NC(=O)[C@H](CCSC)NC(=O)[C@H](CCC(=O)O)NC(=O)[C@H](CC(=O)O)NC(=O)[C@H](CO)NC(=O)[C@H](Cc1ccccc1)NC(=O)[C@H](CO)NC(=O)CNC(=O)[C@H](CC(=O)O)NC(=O)[C@H](C)NC(=O)[C@@H](N)Cc1c[nH]cn1)[C@@H](C)O)[C@@H](C)CC)C(=O)N[C@@H](CC(N)=O)C(=O)N[C@@H](Cc1c[nH]c2ccccc12)C(=O)N[C@@H](CC(C)C)C(=O)N[C@H](C(=O)N[C@@H](CCC(N)=O)C(=O)N[C@H](C(=O)N[C@@H](CCCCN)C(=O)N[C@H](C(=O)N[C@H](C(=O)N[C@@H](CC(=O)O)C(=O)NCCCCNC(=N)N)[C@@H](C)O)[C@@H](C)CC)[C@@H](C)O)[C@@H](C)CC` [[Agm34]hGLP-2(1-34)]: the “% Activity (small bowel inducing activity relative to native rat GLP-2(1-33) = 100%)” value is on record as 97%.

For `CC[C@H](C)[C@H](NC(=O)[C@H](Cc1ccccc1)NC(=O)[C@H](CC(=O)O)NC(=O)[C@H](CCCNC(=N)N)NC(=O)[C@@H](NC(=O)[C@H](C)NC(=O)[C@H](CC(C)C)NC(=O)[C@H](CC(N)=O)NC(=O)[C@H](CC(=O)O)NC(=O)[C@H](CC(C)C)NC(=O)[C@@H](NC(=O)[C@@H](NC(=O)[C@H](CC(N)=O)NC(=O)[C@H](CC[S+](C)[O-])NC(=O)[C@H](CCC(=O)O)NC(=O)[C@H](CC(=O)O)NC(=O)[C@H](CO)NC(=O)[C@H](Cc1ccccc1)NC(=O)[C@H](CO)NC(=O)CNC(=O)[C@H](CC(=O)O)NC(=O)[C@H](C)NC(=O)[C@@H](N)Cc1c[nH]cn1)[C@@H](C)O)[C@@H](C)CC)[C@@H](C)O)C(=O)N[C@@H](CC(N)=O)C(=O)N[C@@H](Cc1c[nH]c2ccccc12)C(=O)N[C@@H](CC(C)C)C(=O)N[C@H](C(=O)N[C@@H](CCC(N)=O)C(=O)N[C@H](C(=O)N[C@@H](CCCCN)C(=O)N[C@H](C(=O)N[C@H](C(=O)N[C@@H](CC(=O)O)C(=O)O)[C@@H](C)O)[C@@H](C)CC)[C@@H](C)O)[C@@H](C)CC` (stereo partly drawn) [[Met(O)10]ratGLP-2(1-33)] (H-HADGSFSDE[Met(O)]NTILDNLATRDFINWLIQTKITD-OH), the “% Activity (small bowel inducing activity relative to native rat GLP-2(1-33) = 100%)” value is reported as 18%. In the case of `CCCC[C@H](NC(=O)[C@H](CCC(=O)O)NC(=O)[C@H](CC(=O)O)NC(=O)[C@H](CO)NC(=O)[C@H](Cc1ccccc1)NC(=O)[C@H](CO)NC(=O)CNC(=O)[C@H](CC(=O)O)NC(=O)[C@H](C)NC(=O)[C@@H](N)Cc1c[nH]cn1)C(=O)N[C@@H](CC(N)=O)C(=O)N[C@H](C(=O)N[C@H](C(=O)N[C@@H](CC(C)C)C(=O)N[C@@H](CC(=O)O)C(=O)N[C@@H](CC(N)=O)C(=O)N[C@@H](CC(C)C)C(=O)N[C@@H](C)C(=O)N[C@H](C(=O)N[C@@H](CCCNC(=N)N)C(=O)N[C@@H](CC(=O)O)C(=O)N[C@@H](Cc1ccccc1)C(=O)N[C@H](C(=O)N[C@@H](CC(N)=O)C(=O)N[C@@H](Cc1c[nH]c2ccccc12)C(=O)N[C@@H](CC(C)C)C(=O)N[C@H](C(=O)N[C@@H](CCC(N)=O)C(=O)N[C@H](C(=O)N[C@@H](CCCCN)C(=O)N[C@H](C(=O)N[C@H](C(=O)N[C@@H](CC(=O)O)C(=O)O)[C@@H](C)O)[C@@H](C)CC)[C@@H](C)O)[C@@H](C)CC)[C@@H](C)CC)[C@@H](C)O)[C@@H](C)CC)[C@@H](C)O` [[Nlel0]ratGLP-2(1-33), [Nle^10]ratGLP-2(1-33)] (H-HADGSFSDE[Nle]NTILDNLATRDFINWLIQTKITD-OH), the “% Increase in small bowel weight” value was 52% and the “% Activity (small bowel inducing activity relative to native rat GLP-2(1-33) = 100%)” value is 100%. For `CC[C@H](C)[C@H](NC(=O)[C@H](Cc1ccccc1)NC(=O)[C@H](CC(=O)O)NC(=O)[C@H](CCCNC(=N)N)NC(=O)[C@H](C)NC(=O)[C@H](C)NC(=O)[C@H](CC(C)C)NC(=O)[C@H](CC(N)=O)NC(=O)[C@H](CC(=O)O)NC(=O)[C@H](CC(C)C)NC(=O)[C@@H](NC(=O)[C@@H](NC(=O)[C@H](CC(N)=O)NC(=O)[C@H](CCSC)NC(=O)[C@H](CCC(=O)O)NC(=O)[C@H](CC(=O)O)NC(=O)[C@H](CO)NC(=O)[C@H](Cc1ccccc1)NC(=O)[C@H](CO)NC(=O)CNC(=O)[C@H](CC(=O)O)NC(=O)[C@H](C)NC(=O)[C@@H](N)Cc1c[nH]cn1)[C@@H](C)O)[C@@H](C)CC)C(=O)N[C@@H](CC(N)=O)C(=O)N[C@@H](Cc1c[nH]c2ccccc12)C(=O)N[C@@H](CC(C)C)C(=O)N[C@H](C(=O)N[C@@H](CCC(N)=O)C(=O)N[C@H](C(=O)N[C@@H](CCCCN)C(=O)N[C@H](C(=O)N[C@H](C(=O)N[C@@H](CC(=O)O)C(=O)N[C@@H](Cc1ccc(O)cc1)C(=O)O)[C@@H](C)O)[C@@H](C)CC)[C@@H](C)O)[C@@H](C)CC` [[Tyr34]hGLP-2(1-34)], the “% Activity (small bowel inducing activity relative to native rat GLP-2(1-33) = 100%)” value came to 135%. Same read-out and setting: the same measure for “H-GSFSDEMNTILDNLATRDFINWLIQTKITD-OH [ratGLP-2(4-33)]”: 6%. For “H-HADGSFSDELNTILDNLATRDFINWLIQTKITD-OH [[Leu10]ratGLP-2(1-33)]”, the “% Activity (small bowel inducing activity relative to native rat GLP-2(1-33) = 100%)” value is recorded as 51%. The “% Increase in small bowel weight” value (listed as [Leu^10]rGLP-2) was found to be 26%.

“H-HADGSFSDEMNTILDNLAAQDFINWLIQTKITD-OH [[Gln20]hGLP-2(1-33)]”: the “% Activity (small bowel inducing activity relative to native rat GLP-2(1-33) = 100%)” value worked out at 80%. Turning to “H-HADGSFSDEMNTILDNLAARDFINWLIQTKITN-OH [[Asn33]hGLP-2(1-33)]”, the “% Activity (small bowel inducing activity relative to native rat GLP-2(1-33) = 100%)” value was 91%. Regarding “H-HADGSFSDEMNTILDNLAARDFVQWLIQTKITD-OH [[Val23,Gln24]hGLP-2(1-33)]”, the “% Increase in small bowel weight” value was 36% and the “% Activity (small bowel inducing activity relative to native rat GLP-2(1-33) = 100%)” value was 82%. “H-HADGSFSDEMNTILDNLATKDFINWLIQTKITD-OH [[Lys20]ratGLP-2(1-33)]”: the “% Increase in small bowel weight” value came out at 62% and the “% Activity (small bowel inducing activity relative to native rat GLP-2(1-33) = 100%)” value came to 120%.

As to “H-HADGSFSDEMNTILDNLATRDFINW-OH [ratGLP-2(1-25)]”, the “% Activity (small bowel inducing activity relative to native rat GLP-2(1-33) = 100%)” value is 8%. For “H-HADGSFSDEMNTILDNLATRDFINWLIQTK-OH [ratGLP-2(1-30)]”, the “% Activity (small bowel inducing activity relative to native rat GLP-2(1-33) = 100%)” value came out at 23%. Regarding “H-HADGSFSDEMNTILDNLATRDFINWLIQTKITD-NH2 [ratGLP-2(1-33)amide]”, the “% Increase in small bowel weight” value was found to be 23% and the “% Activity (small bowel inducing activity relative to native rat GLP-2(1-33) = 100%)” value is 56%. Take “H-HADGSFSDEMNTILDSRRARDFINWLIQTKITD-OH [[Ser16, Arg17, Arg18]hGLP-2(1-33)]”: the “% Activity (small bowel inducing activity relative to native rat GLP-2(1-33) = 100%)” value came to 59%. As for “H-HADGSFSDYSKYLDNLAARDFINWLIQTKITD-OH [[Tyr9, Ser10, Lys11, Tyr12, des-Ile13]hGLP-2(1-33)]”, the “% Increase in small bowel weight” value is on record as 41% and the “% Activity (small bowel inducing activity relative to native rat GLP-2(1-33) = 100%)” value is given as 94%. As for “H-HADGTFSDEMNTILDNLAARDFINWLIQTKITD-OH [[Thr5]hGLP-2(1-33)]”, the “% Activity (small bowel inducing activity relative to native rat GLP-2(1-33) = 100%)” value was found to be 73%.

Take “H-HGDGSASDEMNTILDNLAARDFINWLIQTKITD-OH [[Gly2,Ala6]hGLP-2(1-33)]”: the “% Increase in small bowel weight” value amounted to 18% and the “% Activity (small bowel inducing activity relative to native rat GLP-2(1-33) = 100%)” value is recorded as 67%. The corresponding values for “H-HGDGSFADEMNTILDNLAARDFINWLIQTKITD-OH [[Gly2,Ala7]hGLP-2(1-33)]” are 22% and 82%. The corresponding values for “H-HGDGSFSAEMNTILDNLAARDFINWLIQTKITD-OH [[Gly2,Ala8]hGLP-2(1-33)]” are 33% and 120%. The corresponding values for “H-HGDGSFSDAMNTILDNLAARDFINWLIQTKITD-OH [[Gly2,Ala9]hGLP-2(1-33)]” are 31% and 112%. With “H-HGDGSFSDEANTILDNLAARDFINWLIQTKITD-OH [[Gly2,Ala10]hGLP-2(1-33)]”, the “% Increase in small bowel weight” value was found to be 33% and the “% Activity (small bowel inducing activity relative to native rat GLP-2(1-33) = 100%)” value was 82%. The corresponding values for “H-HGDGSFSDEMATILDNLAARDFINWLIQTKITD-OH [[Gly2,Ala11]hGLP-2(1-33)]” are 42% and 150%. The like results for “H-HGDGSFSDEMNAILDNLAARDFINWLIQTKITD-OH [[Gly2,Ala12]hGLP-2(1-33)]” were, in that order, 18% and 67%.
